From patent publication US20120196824A1, “THERAPEUTIC AGENT FOR CEREBRAL INFARCTION” (MITSUBISHI TANABE PHARMA CORPORATION, priority 2009, published 2012)
Structures can show the parent of a compound that is named as a salt.

Each compound was assayed against T1, Human-recombinant-S-Adenosyl-L-Homocysteine Hydrolase (Homo sapiens, UniProt P23526) (assay: Measurement of enzyme inhibitory activity (hydrolysis of S-Adenosyl-L-Homocysteine, HPLC)). Conditions: S-Adenosyl-L-Homocysteine 10 μM, pH 7.2, 37° C., 15 min.
T1 construct: purchased Diazyme Laboratories
Type: biochemical
Protocol: The enzyme inhibitory activity of the compounds of the Examples was measured using the hydrolysis activity of S-Adenosyl-L-Homocysteine as an index. The measurement method was modification of the method of Henry H. Richards et al. (J. Biol. Chem. 253, 4476-4480, 1978). That is, S-Adenosyl-L-Homocysteine (10 μM) and Adenosine Deaminase (Roche) (4 units) were added to 50 mM phosphate buffer (pH 7.2, containing 1 mM EDTA) with the total amount being 200 μl, and to the solution were added a test substance and then Human-recombinant-S-Adenosyl-L-Homocysteine Hydrolase (50 ng, Diazyme Laboratories) to start the reaction, and the mixture was incubated at 37° C. for 15 min. The reaction was quenched by the addition of 1N aqueous perchloric solution (20 μl), and the mixture was centrifuged under the conditions of 10000 rpm, 5 min, 4° C. The supernatant was collected, and the amount of S-Adenosyl-L-Homocysteine after the reaction was quantified by HPLC. The column used was a reversed-phase column. The detailed conditions of HPLC were as follows.
column used: Wakopak^R HandyODS 150*4.6 mm (Wako Pure Chemical Industries, Ltd.) elution condition: 1.0 ml/min elution solvent: 0.1M acetate buffer (pH 4.0) containing 10 mM 1-heptanesulfonic acid containing 4% acetonitrile wavelength: 258 nm (UV) The inhibitory rate was determined with the amount of decrease in S-Adenosyl-L-Homocysteine before and after the reaction without using the test substance as 100%.
Inhibitory rate (%)={(amount of decrease of S-Adenosyl-L-Homocysteine in the presence of test substance)/(amount of decrease of S-Adenosyl-L-Homocysteine in the absence of test substance)}×100

T1 sequence (P23526 whole entry): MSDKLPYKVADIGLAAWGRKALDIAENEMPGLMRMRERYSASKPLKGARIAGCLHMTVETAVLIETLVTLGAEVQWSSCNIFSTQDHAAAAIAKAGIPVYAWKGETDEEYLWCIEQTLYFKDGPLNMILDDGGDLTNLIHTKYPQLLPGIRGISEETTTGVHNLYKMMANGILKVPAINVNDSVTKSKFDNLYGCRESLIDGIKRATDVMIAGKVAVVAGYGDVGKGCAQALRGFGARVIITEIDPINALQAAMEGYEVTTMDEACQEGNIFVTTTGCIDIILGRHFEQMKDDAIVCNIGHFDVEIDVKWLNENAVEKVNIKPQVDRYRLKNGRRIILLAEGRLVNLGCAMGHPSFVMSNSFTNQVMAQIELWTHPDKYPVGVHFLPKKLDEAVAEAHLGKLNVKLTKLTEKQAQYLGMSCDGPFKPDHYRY

Row | SMILES | IC50 [nM]
1 | Cc1cc2c(cnn2C)cc1N(CC(=O)NCCNC(C)C)CC(=O)N(C)N1Cc2ccccc2C1 [Example 242, N^2-{2-[1,3-dihydro-2H-isoindol-2-yl(methyl)amino]-2-oxoethyl}-N^2-(1,6-dimethyl-1H-indazol-5-yl)-N^1-[2-(isopropylamino)ethyl]glycinamide hydrochloride] | 6
2 | CCNCCNC(=O)CN(CC(=O)N(C)N1Cc2ccccc2C1)c1cc2cn(C)nc2cc1C [Example 243, N^2-{2-[1,3-dihydro-2H-isoindol-2-yl(methyl)amino]-2-oxoethyl}-N^2-(2,6-dimethyl-2H-indazol-5-yl)-N^1-[2-(ethylamino)ethyl]glycinamide hydrochloride] | 7
3 | CCNCCNC(=O)CN(CC(=O)N(C)N1Cc2ccccc2C1)c1cc2cn(CC)nc2cc1C [Example 247, N^2-{2-[1,3-dihydro-2H-isoindol-2-yl(methyl)amino]-2-oxoethyl}-N^2-(2-ethyl-6-methyl-2H-indazol-5-yl)-N^1-[2-(ethylamino)ethyl]glycinamide hydrochloride] | 15

The next lines start with the values.

Row | IC50 [nM] | SMILES
4 | 47 | CCNCCNC(=O)CN(CC(=O)N(C)N1Cc2ccc(F)cc2C1)c1cc2c(C)nn(C)c2cc1C [Example 256, N^2-{2-[(5-fluoro-1,3-dihydro-2H-isoindol-2-yl)(methyl)amino]-2-oxoethyl}-N^2-(1,3,6-trimethyl-1H-indazol-5-yl)-N^1-[2-(ethylamino)ethyl]glycinamide hydrochloride]
5 | 30 | CCNCCNC(=O)CN(CC(=O)N(C)N1Cc2ccc(F)cc2C1)c1cc2c(cnn2C)cc1C [Example 259, N^2-(1,5-dimethyl-1H-indazol-6-yl)-N^2-{2-[(5-fluoro-1,3-dihydro-2H-isoindol-2-yl)(methyl)amino]-2-oxoethyl}-N^1-[2-(ethylamino)ethyl]glycinamide hydrochloride]
6 | 66 | CCNCCNC(=O)CN(CC(=O)N(C)N1Cc2ccc(F)cc2C1)c1cc2c(cc1C)c(CC)nn2CC(F)F [Example 279, N^2-[1-(2,2-difluoroethyl)-3-ethyl-5-methyl-1H-indazol-6-yl]-N^2-{2-[(5-fluoro-1,3-dihydro-2H-isoindol-2-yl)(methyl)amino]-2-oxoethyl}-N^1-[2-(ethylamino)ethyl]glycinamide hydrochloride]
7 | 33 | CCNCCNC(=O)CN(CC(=O)N(C)N1Cc2ccccc2C1)c1cc2c(cc1C)CN(CC)C2=O [Example 284, N^2-{2-[1,3-dihydro-2H-isoindol-2-yl(methyl)amino]-2-oxoethyl}-N^2-(2-ethyl-6-methyl-3-oxo-2,3-dihydro-1H-isoindol-5-yl)-N^1-[2-(ethylamino)ethyl]glycinamide dihydrochloride]
8 | 58 | CCNCCNC(=O)CN(CC(=O)N(C)N1Cc2ccccc2C1)c1cc(-c2noc(C(F)(F)F)n2)ccc1C [Example 287, N^2-{2-[1,3-dihydro-2H-isoindol-2-yl(methyl)amino]-2-oxoethyl}-N^2-{2-methyl-5-[5-(trifluoromethyl)-1,2,4-oxadiazol-3-yl]phenyl}-N^1-[2-(ethylamino)ethyl]glycinamide dihydrochloride]
9 | 76 | CCNCCNC(=O)CN(CC(=O)N(C)N1Cc2ccccc2C1)c1ccc(-c2noc(C(F)(F)F)n2)cc1C [Example 289, N^2-{2-[1,3-dihydro-2H-isoindol-2-yl(methyl)amino]-2-oxoethyl}-N^2-{2-methyl-4-[5-(trifluoromethyl)-1,2,4-oxadiazol-3-yl]phenyl}-N^1-[2-(ethylamino)ethyl]glycinamide dihydrochloride]
10 | 50 | CCNCCNC(=O)CN(CC(=O)N(C)N1Cc2ccccc2C1)c1ccc(N2CCCC2=O)cc1C [Example 298, N^2-{2-[1,3-dihydro-2H-isoindol-2-yl(methyl)amino]-2-oxoethyl}-N^2-[2-methyl-4-(2-oxopyrrolidin-1-yl)phenyl]-N^1-[2-(ethylamino)ethyl]glycinamide dihydrochloride]
11 | 37 | CCNCCNC(=O)CN(CC(=O)N(C)N1Cc2ccccc2C1)c1ccc(-c2ccc(C(N)=O)cn2)cc1C [Example 301, N^2-{4-[5-(aminocarbonyl)pyridin-2-yl]-2-methylphenyl}-N^2-{2-[1,3-dihydro-2H-isoindol-2-yl(methyl)amino]-2-oxoethyl}-N^1-[2-(ethylamino)ethyl]glycinamide dihydrochloride]
12 | 41 | CCNCCNC(=O)CN(CC(=O)N(C)N1Cc2ccccc2C1)c1ccc(-n2cc(C(N)=O)cn2)cc1C [Example 303, N^2-{4-[4-(aminocarbonyl)-1H-pyrazol-1-yl]-2-methylphenyl}-N^2-{2-[1,3-dihydro-2H-isoindol-2-yl(methyl)amino]-2-oxoethyl}-N^1-[2-(ethylamino)ethyl]glycinamide dihydrochloride]
13 | 26 | CCNCCNC(=O)CN(CC(=O)N(C)N1Cc2ccc(F)cc2C1)c1ccc(-c2nc(C(N)=O)cs2)cc1C [Example 308, N^2-{4-[4-(aminocarbonyl)-1,3-thiazol-2-yl]-2-methylphenyl}-N^2-{2-[(5-fluoro-1,3-dihydro-2H-isoindol-2-yl)(methyl)amino]-2-oxoethyl}-N^1-[2-(ethylamino)ethyl]glycinamide dihydrochloride]
14 | 23 | CCNCCNC(=O)CN(CC(=O)N(C)N1Cc2ccccc2C1)c1ccc(-c2nc(C(N)=O)co2)cc1C [Example 309, N^2-{4-[4-(aminocarbonyl)-1,3-oxazol-2-yl]-2-methylphenyl}-N^2-{2-[1,3-dihydro-2H-isoindol-2-yl(methyl)amino]-2-oxoethyl}-N^1-[2-(ethylamino)ethyl]glycinamide dihydrochloride]
15 | 150 | Cc1cc2onc(C)c2cc1N(CC(=O)NC[C@@H]1CCCN1)CC(=O)N(C)N1Cc2ccccc2C1 [Example 328, N^2-{2-[1,3-dihydro-2H-isoindol-2-yl(methyl)amino]-2-oxoethyl}-N^2-(3,6-dimethyl-1,2-benzisoxazol-5-yl)-N^1-[(2S)-pyrrolidin-2-ylmethyl]glycinamide dihydrochloride]

What follows are compounds tested on homocysteine synthesis (assay: Measurement of homocysteine synthesis inhibitory activity in vivo (methionine-loaded mouse, plasma homocysteine)). Conditions: dose of 10 mg/kg, oral, BALB/c mouse; methionine water 1 hr later; plasma 30 min after; read-out: activity (homocysteine synthesis inhibitory rate).
Protocol: A sample was orally administered to BALB/c mouse and, 1 hr later, methionine water (50 g/L) was orally administered at a proportion of 10 ml/kg. 30 min later, blood samples were collected with heparin from the abdominal vein and plasma was obtained. The plasma homocysteine concentration was measured by treating the plasma with tributylphosphine, removing protein with 10% trichloroacetic acid (TCA), fluorescent labeling the supernatant with 4-fluoro-7-sulfobenzofurazan ammonium salt (SBD-F) under alkali conditions, and quantifying by HPLC. The homocysteine synthesis inhibitory rate of the sample was determined with the difference in the homocysteine value between methionine water-loaded animal and methionine water-unloaded animal as 100%. The detailed conditions of HPLC were as follows.
column used: Wakopak^R HandyODS 150*4.6 mm (Wako Pure Chemical Industries, Ltd.) elution condition: 1.0 ml/min elution solvent: 0.1M phosphate buffer (pH 6.0) 2% methanol wavelength: ex 385 nm em 515 nm

Row | SMILES | inhibition in vivo at 10 mg/kg [%]
16 | CCNCCNC(=O)CN(CC(=O)N(C)N1Cc2ccccc2C1)c1cc(C(C)=O)ccc1C [57 (2HCl salt)] | ≥ 40
17 | Cc1nnc(-c2ccc(C)c(N(CC(=O)NCCNC(C)C)CC(=O)N(C)N3Cc4ccccc4C3)c2)s1 [Example 105, N^2-{2-[1,3-dihydro-2H-isoindol-2-yl(methyl)amino]-2-oxoethyl}-N^2-[2-methyl-5-(5-methyl-1,3,4-thiadiazol-2-yl)phenyl]-N^1-[2-(isopropylamino)ethyl]glycinamide dihydrochloride] | 20 to 40
18 | CCNCCNC(=O)CN(CC(=O)N(C)N1Cc2ccccc2C1)c1ccc(-c2cnn(C)c2)cc1C [Example 136, N^2-{2-[1,3-dihydro-2H-isoindol-2-yl(methyl)amino]-2-oxoethyl}-N^2-[2-methyl-4-(1-methyl-1H-pyrazol-4-yl)phenyl]-N^1-[2-(ethylamino)ethyl]glycinamide trihydrochloride] | ≥ 40
19 | CCNCCNC(=O)CN(CC(=O)N(C)N1Cc2ccc(F)cc2C1)c1cc2cn(C)nc2cc1C [Example 245, N^2-(2,6-dimethyl-2H-indazol-5-yl)-N^2-{2-[(5-fluoro-1,3-dihydro-2H-isoindol-2-yl)(methyl)amino]-2-oxoethyl}-N^1-[2-(ethylamino)ethyl]glycinamide hydrochloride] | 20 to 40
20 | CCNCCNC(=O)CN(CC(=O)N(C)N1Cc2ccc(F)cc2C1)c1cc2cn(CC(F)F)nc2cc1C [Example 254, N^2-[2-(2,2-difluoroethyl)-6-methyl-2H-indazol-5-yl]-N^2-{2-[(5-fluoro-1,3-dihydro-2H-isoindol-2-yl)(methyl)amino]-2-oxoethyl}-N^1-[2-(ethylamino)ethyl]glycinamide hydrochloride] | 20 to 40
21 | CCNCCNC(=O)CN(CC(=O)N(C)N1Cc2ccc(F)cc2C1)c1cc2nn(CC(F)F)cc2cc1C [Example 268, N^2-[2-(2,2-difluoroethyl)-5-methyl-2H-indazol-6-yl]-N^2-{2-[(5-fluoro-1,3-dihydro-2H-isoindol-2-yl)(methyl)amino]-2-oxoethyl}-N^1-[2-(ethylamino)ethyl]glycinamide hydrochloride] | < 20
